Measured values reported in publication PMC7077986, “Molecular basis for catabolism of the abundant metabolite trans-4-hydroxy-L-proline by a microbial glycyl radical enzyme” (eLife, 2020).

B1: trans-4-hydroxy-L-proline dehydratase (HypD) from Clostridioides difficile 70-100-2010, wild type, unactivated (enzyme)
chain: MARGTFERTKKLREESINAEPHISIERAVLMTEAYKKYEGSVEIPVLRALSFKHYIENRTLSINDGELIVGEKGDSPNGAPTYPEICCHTMEDLEVMHNRDIINFSVSEEARKIHKEEIIPFWKKRQTRDKIINAMTPEWLAAYEAGMFTEFMEQRAPGHTVCGDTIYKKGFLDLKKDIEARLKELDFLNDLDAYNKKADLEAMAIACDAMVILGKRYAEKARQMAEEETDEAKKKDLLLIAETCDVVPAHKPETYHQAIQMYWFVHIGVTTELNIWDAFTPGRLDQHLNPFYERDVENGILDRDRAQELLECLWVKFNNQPAPPKVGITLKESSTYTDFANINTGGINPDGQDGVNEVSYIILDVMDEMKLIQPSSNVQISKKTPQKFLKRACEISRKGWGQPAFYNTEAIVQELMEAGKTIEDARLGGTSGCVETGCFGKEAYVLTGYMNIPKILELTLNNGYDPISKKQIGIETGDPRNFQSYEELFEAFKKQLHYMIDIKIEGNAVIENICAKHMPCPLMSTIVDDCIEKGKDYQRGGARYNTRYIQGVGIGTITDSLTAIKYNVFDKKKFDMDTLLKALDANFEGYEAILNLVSNKTPKYGNDDDYADEIMQEIFNAYYNEVTGRPTVCGGEYRVDMLPTTCHIYFGEIMGASPNGRLCAKPVSEGISPEKGGDTNGPTAVIKSCAKMDHIKTGGTLLNQRFAPSVVQGEKGLDNMANLVRAYFNMDGHHIQFNVFDKNVLLEAQKNPQDYKDLIVRVAGYSDHFNNLSRTLQDEIIGRTEQTF
notes: HypD (trans-4-hydroxy-L-proline dehydratase), glycyl radical enzyme, gene amplified from C. difficile 70-100-2010 genomic DNA; UniProt A0A031WDE4; all residues other than the hexahistidine tag are seen in the structures; Crystallised with the N-terminal hexahistidine tag intact; also called Hyp dehydratase; CdHypD; source: E. coli BL21-CodonPlus(DE3)-RIL, pET28a-CdHypD, purified (Ni-NTA); not …

How the values were obtained:
[1] = target: T1, HypD (trans-4-hydroxy-L-proline dehydratase; CdHypD) (Clostridioides difficile, UniProt A0A031WDE4); experiment: X-ray crystal structure, […] Å; format: binding; settings: unactivated enzyme; active site; 4 mM Hyp in crystallization buffer, 100 mM Hyp in cryoprotectant, pH 7.5, 21 °C
T1 construct: gene pflD; full length, N-terminal hexahistidine tag (pET28a-CdHypD), E. coli BL21-CodonPlus(DE3)-RIL (delta proC for assays); dimeric; for activity the Gly765 radical was installed by HypD-AE
T1 sequence (A0A031WDE4 1-789): B1 chain

[2] = target: the molecule itself; experiment: crystal structure; unactivated wild-type HypD with intact N-terminal hexahistidine tag, crystallised aerobically, hanging drop, 21°C, 14% PEG 3350, 100 mM KCl, 100 mM HEPES pH 7.5; glycerol-bound (2.05 Å) and Hyp-bound (2.52 Å) crystals; eight chains in the asymmetric unit

Row | Molecule | X-ray crystal structure, 2.52 Å [1] | stoichiometry N [2]
1 | O=C(O)[C@@H]1C[C@@H](O)CN1 [Hyp] | In the active site of the Hyp-bound HypD structure, electron density was observed for the substrate | –
2 | B1 | – | 2
